Results from US6737383B1, “Herbicidal oxadiazolidines” (priority 1999, dated 2004).

How the values were obtained:
[1] = system: wild oat; assay: Test B pre/postemergence wild oat; type: in vivo, Avena fatua
Procedure, shortened: (§1)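 Herbicidal effect was estimated by eye on a ten-point control scale after plants spent twelve to sixteen days in a greenhouse following soil or foliar treatment. Foliar sprays targeted plants at one to four leaves; all doses were formulated in a non-phytotoxic solvent with surfactant.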

[2] = system: velvetleaf; assay: Test B pre/postemergence velvetleaf; type: in vivo, Abutilon theophrasti
Procedure, shortened: as §1

[3] = system: blackgrass; assay: Test B pre/postemergence blackgrass; type: in vivo, Alopecurus myosuroides
Procedure, shortened: as §1

[4] = system: duck salad; assay: Test B flood test duck salad; type: in vivo, Heteranthera limosa; settings: for Plant response rating, Ducksalad: scale 0 to 10, 0 is no effect, 10 is complete control; for Ducksalad plant response rating: scale of 0 to 10 where 0 is no effect and 10 is complete control
Procedure, shortened: (§2)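 Flood test on plants grown to the 2-leaf stage; treated plants kept in greenhouse twelve to sixteen days, then visually rated against controls on a 0 (no effect) to 10 (complete control) scale.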

[5] = system: wheat; assay: Test B pre/postemergence wheat; type: in vivo, Triticum aestivum
Procedure, shortened: as §1

[6] = system: corn; assay: Test B pre/postemergence corn; type: in vivo, Zea mays
Procedure, shortened: as §1

[7] = system: rice; assay: Test B flood test rice; type: in vivo, Oryza sativa; settings: for Rice plant response rating: scale of 0 to 10 where 0 is no effect and 10 is complete control
Procedure, shortened: as §2

[8] = system: purple nutsedge; assay: Test B pre/postemergence purple nutsedge; type: in vivo, Cyperus rotundus
Procedure, shortened: as §1

[9] = system: crabgrass; assay: Test B pre/postemergence crabgrass; type: in vivo, Digitaria sanguinalis
Procedure, shortened: as §1

[10] = system: morningglory; assay: Test B pre/postemergence morningglory; type: in vivo, Ipomoea hederacea
Procedure, shortened: as §1

[11] = system: surinam grass; assay: Test B pre/postemergence surinam grass; type: in vivo, Brachiaria decumbens
Procedure, shortened: as §1

[12] = system: cocklebur; assay: Test B pre/postemergence cocklebur; type: in vivo, Xanthium strumarium
Procedure, shortened: as §1

[13] = system: bedstraw; assay: Test B pre/postemergence bedstraw; type: in vivo, Galium aparine; settings: Postemergence, Rate 500 g/ha; scale of 0 to 10 where 0 is no effect and 10 is complete control
Procedure, shortened: as §1

[14] = system: smallflower flatsedge; assay: Test B flood test smallflower flatsedge; type: in vivo, Cyperus difformis; settings: for S. Flatsedge plant response rating: scale of 0 to 10 where 0 is no effect and 10 is complete control
Procedure, shortened: as §2

[15] = system: bamyardgrass; assay: Test B flood test barnyardgrass; type: in vivo, Echinochloa crus-galli; settings: for Plant response rating, Barnyardgrass: scale 0 to 10, 0 is no effect, 10 is complete control; for Barnyardgrass plant response rating: scale of 0 to 10 where 0 is no effect and 10 is complete control
Procedure, shortened: as §2

[16] = system: giant foxtail; assay: Test B pre/postemergence giant foxtail; type: in vivo, Setaria faberii
Procedure, shortened: as §1

[17] = Postemergence, Rate 500 g/ha, scale of 0 to 10 where 0 is no effect and 10 is complete control
[18] = Preemergence, Rate 62 g/ha, scale 0 to 10 (0 no effect, 10 complete control)
[19] = Preemergence, Rate 125 g/ha, scale of 0 to 10 where 0 is no effect and 10 is complete control
[20] = Preemergence, Rate 250 g/ha, scale 0 to 10, 0 is no effect, 10 is complete control
[21] = Preemergence, Rate 500 g/ha, scale 0 to 10, 0 is no effect, 10 is complete control
[22] = Rate 62 g/ha, Postemergence, scale of 0 to 10 where 0 is no effect and 10 is complete control
[23] = Postemergence, Rate 250 g/ha, scale 0 to 10, 0 is no effect, 10 is complete control
[24] = Postemergence, Rate 125 g/ha, scale 0 to 10, 0 is no effect, 10 is complete control
[25] = Preemergence, Rate 250 g/ha, scale of 0 to 10 where 0 is no effect and 10 is complete control
[26] = Postemergence (flood test), Rate 125 g/ha
[27] = Postemergence section (flood test species), Rate 500 g/ha
[28] = Rate 62 g/ha, Postemergence (flood test species)
[29] = flood test species, listed under Postemergence, Rate 250 g/ha
[30] = flood test species, listed under Postemergence, Rate 250 g/ha, scale 0 to 10, 0 is no effect, 10 is complete control

SMILES: CC(C)N(C(=O)n1oc(=O)n(CCCC(F)(F)F)c1=O)c1ccc(F)cc1 [Compound 398]
- Wild oats plant response rating [1, 17]: 0
- Plant response rating, Wild oats [1, 18]: 0
- Plant response rating, Wild oats [1, 19]: 3
- Wild oats plant response rating [1, 20]: 3
- Wild oats plant response rating [1, 21]: 8
- Wild oats plant response rating [1, 22]: 0
- Plant response rating, Velvetleaf [2, 23]: 0
- Velvetleaf plant response rating [2, 17]: 5
- Plant response rating, Velvetleaf [2, 18]: 0
- Plant response rating, Velvetleaf [2, 19]: 2
- Velvetleaf plant response rating [2, 20]: 6
- Velvetleaf plant response rating [2, 21]: 7
- Velvetleaf plant response rating [2, 22]: 0
- Plant response rating, Blackgrass [3, 24]: 6
- Plant response rating, Blackgrass [3, 23]: 9
- Blackgrass plant response rating [3, 17]: 9
- Plant response rating, Blackgrass [3, 18]: 3
- Plant response rating, Blackgrass [3, 19]: 8
- Blackgrass plant response rating [3, 25]: 8
- Blackgrass plant response rating [3, 21]: 10
- Blackgrass plant response rating [3, 22]: 0
- Plant response rating, Ducksalad [4, 26]: 0
- Ducksalad plant response rating [4, 27]: 0
- Ducksalad plant response rating [4, 28]: 0
- Plant response rating, Ducksalad [4, 29]: 0
- Wheat plant response rating [5, 17]: 3
- Plant response rating, Wheat [5, 18]: 0
- Plant response rating, Wheat [5, 19]: 0
- Wheat plant response rating [5, 20]: 0
- Wheat plant response rating [5, 21]: 2
- Wheat plant response rating [5, 22]: 0
- Plant response rating, Corn [6, 24]: 0
- Plant response rating, Corn [6, 23]: 0
- Corn plant response rating [6, 17]: 0
- Plant response rating, Corn [6, 18]: 0
- Plant response rating, Corn [6, 19]: 0
- Corn plant response rating [6, 20]: 0
- Corn plant response rating [6, 21]: 8
- Corn plant response rating [6, 22]: 0
- Rice plant response rating [7, 27]: 0
- Rice plant response rating [7, 28]: 0
- Plant response rating, Rice [7, 30]: 0
- Plant response rating, Nutsedge [8, 23]: 0
- Nutsedge plant response rating [8, 17]: 0
- Plant response rating, Nutsedge [8, 18]: 0
- Plant response rating, Nutsedge [8, 19]: 0
- Nutsedge plant response rating [8, 20]: 0
- Nutsedge plant response rating [8, 21]: 0
- Nutsedge plant response rating [8, 22]: 0
- Plant response rating, Crabgrass [9, 24]: 3
- Plant response rating, Crabgrass [9, 23]: 9
- Crabgrass plant response rating [9, 17]: 9
- Plant response rating, Crabgrass [9, 18]: 9
- Plant response rating, Crabgrass [9, 19]: 10
- Crabgrass plant response rating [9, 20]: 10
- Crabgrass plant response rating [9, 21]: 10
- Crabgrass plant response rating [9, 22]: 2
- Plant response rating, Morningglory [10, 23]: 3
- Morningglory plant response rating [10, 17]: 8
- Plant response rating, Morningglory [10, 18]: 0
- Plant response rating, Morningglory [10, 19]: 0
- Morningglory plant response rating [10, 20]: 0
- Morningglory plant response rating [10, 21]: 0
- Morningglory plant response rating [10, 22]: 2
- Plant response rating, B. signalgrass [11, 24]: 0
- Plant response rating, B. signalgrass [11, 23]: 2
- B. signalgrass plant response rating [11, 17]: 8
- Plant response rating, B. signalgrass [11, 18]: 0
- Plant response rating, B. signalgrass [11, 19]: 2
- B. signalgrass plant response rating [11, 25]: 6
- B. signalgrass plant response rating ([11]; Preemergence, Rate 500 g/ha, scale of 0 to 10 where 0 is no effect and 10 is complete control): 10
- B. signalgrass plant response rating [11, 22]: 0
- Plant response rating, Cocklebur [12, 24]: 0
- Plant response rating, Cocklebur [12, 23]: 0
- Cocklebur plant response rating [12, 17]: 0
- Plant response rating, Cocklebur [12, 18]: 0
- Plant response rating, Cocklebur [12, 19]: 0
- Cocklebur plant response rating [12, 20]: 0
- Cocklebur plant response rating [12, 21]: 0
- Cocklebur plant response rating [12, 22]: 0
- Bedstraw plant response rating [13]: 9
- S. Flatsedge plant response rating [14, 27]: 0
- S. Flatsedge plant response rating [14, 28]: 0
- Plant response rating, S. Flatsedge [14, 30]: 0
- Plant response rating, Barnyardgrass [15, 26]: 0
- Barnyardgrass plant response rating [15, 27]: 0
- Barnyardgrass plant response rating [15, 28]: 0
- Plant response rating, Barnyardgrass [15, 29]: 0
- Plant response rating, Giant foxtail [16, 24]: 8
- Plant response rating, Giant foxtail [16, 23]: 9
- Giant foxtail plant response rating [16, 17]: 9
- Plant response rating, Giant foxtail [16, 18]: 10
- Plant response rating, Giant foxtail [16, 19]: 10
- Giant foxtail plant response rating [16, 20]: 10
- Giant foxtail plant response rating [16, 21]: 10
- Giant foxtail plant response rating [16, 22]: 3
